Measured values published in patent publication US12527732B2, “Biobased polyglyceryl esters and compositions comprising the same” (Inolex Investment Corporation, priority 2021, dated 2026).

What was measured:
Assay type in all cases: physicochemical
[1] = Aqueous Solution Turbidity (AST) / water solubility and clarity of 5% and 10% aqueous solutions
Procedure: (§1) Measurement of Turbidity via Nephelometric Turbidimetry. Clarity of solutions and formulations is reported as Aqueous Solution Turbidity (AST) or Formulation Turbidity (FT) measured in nephelometric turbidity units (NTU). Turbidity values were determined on an HF Scientific Micro 100 Benchtop Turbidity Meter operating at room temperature (23° C.±2° C.). Aqueous Solution Turbidity is an inherent property of a PGE composition when measured as specified at 5% in deionized water at 23±2° C.

[2] = Critical Micelle Concentration (CMC) via equilibrium surface tensiometry; conditions: pure water, 22° C.
Procedure: Determination of Critical Micelle Concentration (CMC) via Equilibrium Surface Tensiometry. […] Dipping distance for the plate was set to 3.00 mm prior to return to the surface within +/−0.01 mm for measurement of surface tension force. All tests were performed at 22° C.±0.2° C. For each surfactant a 1.00% stock solution in pure water was prepared and incrementally dosed into initially pure water to augment surfactant concentration while measuring surface tension after each concentration augmentation. Each surfactant was tested in duplicate runs at concentrations ranging from 0.001% to 0.500% of surfactant. The CMC value is taken at the intersection between the regression straight line of the linearly dependent region and the straight line passing through the plateau when surface tension is plotted as a function of concentration.

[3] = STERC via bubble pressure tensiometry; conditions: at the CMC
Procedure: Dynamic surface tension reduction, i.e. surface tension reduction as a function of time, is measured by bubble pressure tensiometry using the maximum bubble pressure (MBP) method. When dynamic surface tension data obtained from MBP experiments is plotted as a function of surface age, fitting of the data to a first-order decay function as in Formula (III) enables one to obtain the Surface Tension Equilibration Rate Constant (STERC) for a given surfactant at a specific concentration.
Surface Tension Equilibration Rate Constant (STERC) is calculated according to Formula (III): γt=γeq+(γi−γeq)^−t/K (III) where: • γt=surface tension at time=t, in mN/m; • γeq=equilibrium surface tension, in mN/m; • γi=initial surface tension, in mN/m; • t=time, in ms; and • K=surface tension equilibration rate constant (STERC) in ms^−1.
Determination of STERC via Bubble Pressure Tensiometry. Dynamic surface tensions were determined on a Kruss BP100 Bubble Pressure Tensiometer, using a 0.256 mm OD silane-treated glass capillary submerged to a depth of 1.00 cm for testing and buoyancy compensated. […] The STERC as reported herein is determined at the CMC and is obtained by plotting the dynamic surface tension as a function of surface age and fitting the data to the equation below to obtain a first-order rate constant for reduction of surface tension from the initial value to the equilibrium value. […]

[4] = Solubilization of 1% Spectrastat G2 Natural by solubilizer, Formulation Turbidity (FT); conditions: 5% solubilizer, aqueous
Procedure: as §1

Substance: Heptyl Glucoside [CE4]
- AST @ 5% ([1]; 5% in deionized water, 23±2° C.): 0.65 NTU
- AST @ 10% ([1]; 10% in deionized water): 1.2 NTU
- CMC [2]: 0.0672 wt %
- STERC at CMC ([3]; 22° C.): 3226 ms^−1
- STERC ([3]; unit printed s^−1): 3226 s⁻¹
- FT [4]: 4.21 NTU
